Experimental data as given in patent publication US20240190880A1 (THE REGENTS OF THE UNIVERSITY OF MICHIGAN, priority 2021, published 2024).

The compounds below were run against T1, ER (Homo sapiens, UniProt P03372) (assay: ER degradation activity, in-cell western blot analysis in T47D cells). Settings: 16 hours, Table A does not say which cell line (T47D or MCF7), read-out: Potency (DC50).
T1 construct: host or cells: T47D and MCF7 human breast cancer cells
T1 sequence (P03372 1-595): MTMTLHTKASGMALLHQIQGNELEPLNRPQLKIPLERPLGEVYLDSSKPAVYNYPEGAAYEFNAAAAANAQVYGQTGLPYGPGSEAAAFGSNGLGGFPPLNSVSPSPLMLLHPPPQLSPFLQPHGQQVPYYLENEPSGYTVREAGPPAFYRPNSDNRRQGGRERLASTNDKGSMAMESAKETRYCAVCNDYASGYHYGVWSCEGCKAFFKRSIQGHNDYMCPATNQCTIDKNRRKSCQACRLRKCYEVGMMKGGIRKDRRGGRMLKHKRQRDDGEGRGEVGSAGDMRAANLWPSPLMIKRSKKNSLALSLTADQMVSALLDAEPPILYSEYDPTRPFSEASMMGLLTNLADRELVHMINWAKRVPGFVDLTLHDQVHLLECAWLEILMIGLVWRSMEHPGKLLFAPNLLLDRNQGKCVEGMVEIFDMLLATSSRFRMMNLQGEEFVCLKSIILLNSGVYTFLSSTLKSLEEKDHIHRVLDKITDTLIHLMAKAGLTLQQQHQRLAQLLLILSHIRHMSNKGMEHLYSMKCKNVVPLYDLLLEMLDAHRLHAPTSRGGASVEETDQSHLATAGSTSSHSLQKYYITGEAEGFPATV
Format: cell-based
Outline: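 Human T47D cells (DMEM, 10% FBS) are dosed for 16 h with 0.5% DMSO final and probed with 680- and 800-dye secondary antibodies. Relative ER is calculated against vehicle and untreated wells.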

Row | Structure (SMILES) | DC50 [nM]
1 | C[C@@H]1Cc2c([nH]c3ccccc23)[C@@H](c2c(F)cc(N3CC(F)(C(=O)N4CCC(CN5Cc6cc7c(cc6C5)C(=O)N(C5CCC(=O)NC5=O)C7=O)CC4)C3)cc2F)N1CC(F)F (stereo partly drawn) [E 209, 6-((1-(1-(4-((1R,3R)-2-(2,2-difluoroethyl)-3-methyl-2,3,4,9-tetrahydro-1H-pyrido[3,4-b]indol-1-yl)-3,5-difluorophenyl)-3-fluoroazetidine-3-carbonyl)piperidin-4-yl)methyl)-2-(2,6-dioxopiperidin-3-yl)-6,7-dihydropyrrolo[3,4-f]isoindole-1,3(2H,5H)-dione] | 10 to 100
2 | C[C@@H]1Cc2cc(O)ccc2[C@@H](c2c(F)cc(N3CCC4(CCN(CC(=O)N5Cc6cc7c(cc6C5)C(=O)N(C5CCC(=O)NC5=O)C7=O)C4)C3)cc2F)N1CC(C)(F)F (stereo partly drawn) [E 31, 6-(2-(7-(4-((1S,3R)-2-(2,2-difluoropropyl)-6-hydroxy-3-methyl-1,2,3,4-tetrahydroisoquinolin-1-yl)-3,5-difluorophenyl)-2,7-diazaspiro[4.4]nonan-2-yl)acetyl)-2-(2,6-dioxopiperidin-3-yl)-6,7-dihydropyrrolo[3,4-f]isoindole-1,3(2H,5H)-dione] | > 100
3 | O=C1CCC(N2C(=O)c3cc4c(cc3C2=O)CN(CC(=O)N2CC3(CCN(c5ccc([C@@H]6c7ccc(O)cc7CC[C@@H]6c6ccccc6)cc5)CC3)C2)CC4)C(=O)N1 (mixture of isomers) [E 163, rac-2-(2,6-dioxopiperidin-3-yl)-6-(2-(7-(4-((1R,2S)-6-hydroxy-2-phenyl-1,2,3,4-tetrahydronaphthalen-1-yl)phenyl)-2,7-diazaspiro[3.5]nonan-2-yl)-2-oxoethyl)-5,6,7,8-tetrahydro-1H-pyrrolo[3,4-g]isoquinoline-1,3(2H)-dione] | 10 to 100
4 | O=C1CCC(N2C(=O)c3cc4c(cc3C2=O)CN(CC(=O)N2CC3(CCN(c5ccc([C@@H]6c7ccc(O)cc7CC[C@@H]6c6ccccc6)cc5)CC3)C2)C4)C(=O)N1 (mixture of isomers) [E 9, Rac-2-(2,6-dioxopiperidin-3-yl)-6-(2-(7-(4-((1R,2S)-6-hydroxy-2-phenyl-1,2,3,4-tetrahydronaphthalen-1-yl)phenyl)-2,7-diazaspiro[3.5]nonan-2-yl)-2-oxoethyl)-6,7-dihydropyrrolo[3,4-f]isoindole-1,3(2H,5H)-dione] | < 10

Further lines, results first:

Row | DC50 [nM] | Structure (SMILES)
5 | < 10 | C[C@@H]1Cc2c([nH]c3ccccc23)[C@@H](c2c(F)cc(N3CCC4(CN(C(=O)CN5Cc6cc7c(cc6C5)C(=O)N(C5CCC(=O)NC5=O)C7=O)C4)C3)cc2F)N1CC(F)F (stereo partly drawn) [E 83, 6-(2-(6-(4-((1R,3R)-2-(2,2-difluoroethyl)-3-methyl-2,3,4,9-tetrahydro-1H-pyrido[3,4-b]indol-1-yl)-3,5-difluorophenyl)-2,6-diazaspiro[3.4]octan-2-yl)-2-oxoethyl)-2-(2,6-dioxopiperidin-3-yl)-6,7-dihydropyrrolo[3,4-f]isoindole-1,3(2H,5H)-dione]
6 | < 10 | C[C@@H]1Cc2c([nH]c3ccccc23)[C@@H](c2c(F)cc(N3CCC4(CCN(CC(=O)N5Cc6cc7c(cc6C5)C(=O)N(C5CCC(=O)NC5=O)C7)C4)CC3)cc2F)N1CC(F)F (stereo partly drawn) [E 63, 3-(6-(2-(8-(4-((1R,3R)-2-(2,2-difluoroethyl)-3-methyl-2,3,4,9-tetrahydro-1H-pyrido[3,4-b]indol-1-yl)-3,5-difluorophenyl)-2,8-diazaspiro[4.5]decan-2-yl)acetyl)-1-oxo-3,5,6,7-tetrahydropyrrolo[3,4-f]isoindol-2(1H)-yl)piperidine-2,6-dione]

Same assay, conditions: compounds 16 hours, Table A does not say whether T47D or MCF7, read-out: Potency (DC50)

Row | DC50 [nM] | Structure (SMILES)
7 | 10 to 100 | C[C@@H]1Cc2cc(O)ccc2[C@@H](c2c(F)cc(C3CCC(C(=O)N4CCC(N5Cc6cc7c(cc6C5)C(=O)N(C5CCC(=O)NC5=O)C7=O)CC4)CC3)cc2F)N1CC(F)F (stereo partly drawn) [E 487, 6-(1-(4-(4-((1S,3R)-2-(2,2-difluoroethyl)-6-hydroxy-3-methyl-1,2,3,4-tetrahydroisoquinolin-1-yl)-3,5-difluorophenyl)cyclohexane-1-carbonyl)piperidin-4-yl)-2-(2,6-dioxopiperidin-3-yl)-6,7-dihydropyrrolo[3,4-f]isoindole-1,3(2H,5H)-dione]
